Reference: the NIST ThermoML archive (doi:10.1021/acs.jced.8b00662)

Experiment: xn = mol fraction of the nth substance listed
Conditions: 100 kPa, Liquid; for viscosity: Falling or rolling sphere viscometry; for mass density: Vibrating tube method

OCC1CC1 [cyclopropylmethanol] + c1ccc2c(c1)CCCC2
Conditions | mass density [kg/m3] | viscosity [mPa·s]
293.15 K, x2 = 0 | 913.02 | 3.988
293.15 K, x2 = 0.0993 | 921.89 | 3.498
293.15 K, x2 = 0.1972 | 929.26 | 3.134
293.15 K, x2 = 0.3008 | 936.02 | 2.837
293.15 K, x2 = 0.3978 | 941.84 | 2.622
293.15 K, x2 = 0.4986 | 947.21 | 2.449
293.15 K, x2 = 0.6031 | 952.27 | 2.318
293.15 K, x2 = 0.7031 | 956.72 | 2.229
293.15 K, x2 = 0.7981 | 960.63 | 2.182
293.15 K, x2 = 0.901 | 964.72 | 2.164
298.15 K, x2 = 0 | 908.96 | 3.455
298.15 K, x2 = 0.0993 | 917.77 | 3.039
298.15 K, x2 = 0.1972 | 925.12 | 2.734
298.15 K, x2 = 0.3008 | 931.86 | 2.49
298.15 K, x2 = 0.3978 | 937.67 | 2.313
298.15 K, x2 = 0.4986 | 943.05 | 2.173
298.15 K, x2 = 0.6031 | 948.12 | 2.068
298.15 K, x2 = 0.7031 | 952.59 | 1.997
298.15 K, x2 = 0.7981 | 956.53 | 1.963
298.15 K, x2 = 0.901 | 960.66 | 1.952
303.15 K, x2 = 0 | 904.87 | 3.009
303.15 K, x2 = 0.0993 | 913.62 | 2.656
303.15 K, x2 = 0.1972 | 920.94 | 2.402
303.15 K, x2 = 0.3008 | 927.67 | 2.2
303.15 K, x2 = 0.3978 | 933.47 | 2.053
303.15 K, x2 = 0.4986 | 938.85 | 1.94
303.15 K, x2 = 0.6031 | 943.94 | 1.855
303.15 K, x2 = 0.7031 | 948.44 | 1.8
303.15 K, x2 = 0.7981 | 952.41 | 1.774
303.15 K, x2 = 0.901 | 956.59 | 1.77
308.15 K, x2 = 0 | 900.74 | 2.635
308.15 K, x2 = 0.0993 | 909.43 | 2.338
308.15 K, x2 = 0.1972 | 916.73 | 2.123
308.15 K, x2 = 0.3008 | 923.44 | 1.958
308.15 K, x2 = 0.3978 | 929.24 | 1.836
308.15 K, x2 = 0.4986 | 934.63 | 1.747
308.15 K, x2 = 0.6031 | 939.74 | 1.675
308.15 K, x2 = 0.7031 | 944.26 | 1.633
308.15 K, x2 = 0.7981 | 948.28 | 1.613
308.15 K, x2 = 0.901 | 952.52 | 1.618
313.15 K, x2 = 0 | 896.59 | 2.321
313.15 K, x2 = 0.0993 | 905.22 | 2.068
313.15 K, x2 = 0.1972 | 912.49 | 1.889
313.15 K, x2 = 0.3008 | 919.19 | 1.754
313.15 K, x2 = 0.3978 | 925 | 1.651
313.15 K, x2 = 0.4986 | 930.4 | 1.579
313.15 K, x2 = 0.6031 | 935.53 | 1.521
313.15 K, x2 = 0.7031 | 940.09 | 1.491
313.15 K, x2 = 0.7981 | 944.15 | 1.474
313.15 K, x2 = 0.901 | 948.45 | 1.485
318.15 K, x2 = 0 | – | 2.054
318.15 K, x2 = 0.0993 | – | 1.84
318.15 K, x2 = 0.1972 | – | 1.688
318.15 K, x2 = 0.3008 | – | 1.577
318.15 K, x2 = 0.3978 | – | 1.492
318.15 K, x2 = 0.4986 | – | 1.433
318.15 K, x2 = 0.6031 | – | 1.387
318.15 K, x2 = 0.7031 | – | 1.366
318.15 K, x2 = 0.7981 | – | 1.355
318.15 K, x2 = 0.901 | – | 1.369
